Reference: patent publication US10206867B2, “Alcoholic extract of aerial parts of Solidago virgaurea subsp. alpestris, method of production thereof, and cosmetic or dermatological composition containing it” (CHANEL PARFUMS BEAUTE, priority 2015, dated 2019)

Experiments:
[1] = Antioxidant activity, pholasin ABEL chemiluminescence test, hydroxyl radicals; assay type: biochemical
Method: (§1) To determine the capacity of Goldenrod for trapping free radicals (hydroxyls, halogenated derivatives, peroxynitrites and superoxide radicals), i.e. its antioxidant capacity, chemiluminescence tests dependent on pholasin ABEL®1 were used (Knight Scientific Limited) according to the manufacturer's instructions. Briefly, various concentrations of ingredients were incubated with pholasin, a well known photoprotein that emits light when it binds to free radicals. D-Mannitol, albumin, vitamin E and L-ascorbic acid were used as positive controls for determining the capacity of the extract for trapping hydroxyl radicals, halogenated derivatives, peroxynitrites and superoxides, respectively.
All the determinations were repeated 5 times and the mean values were determined. The antioxidant capacity of the ingredient is expressed as the percentage reduction of the luminescence peak of Pholasin observed during the assay in the presence and in the absence of the active ingredient ±SD, with the untreated control represented at 0%.

[2] = target: T1, MMP3 (Homo sapiens, UniProt P08254); experiment: MMP3 activity by fluorometric assay; assay type: biochemical; settings: 5 mM; percentage activity relative to untreated control (100%)
T1 construct: purchased Biomol SE-109
Method: (§2) To evaluate the effect of Goldenrod on the activity of MMP3 and MMP9, the enzymes (Biomol SE-109 and SE-244, respectively) were incubated with different concentrations of Goldenrod, each concentration in quintuplicate. The enzymatic reaction was induced by adding the fluorescent substrate specific to each MMP enzyme, dissolved in DMSO (Bachem H-2300, M-2055). The enzymatic reaction was monitored by spectrophotometry for one hour and the fluorescence was measured after excitation/emission at wavelengths of 360/460 nm for MMP3, or 320/405 nm for MMP9. The results are expressed as the mean of the replicates ±SD and are shown in […] activity of the MMPs relative to the untreated control, which represents 100%. As control, EDTA was used for inhibiting the activity of the MMPs.

[3] = target: T2, MMP9 (Homo sapiens, UniProt P14780); experiment: MMP9 activity by fluorometric assay; assay type: biochemical; settings: 5 mM; percentage activity relative to untreated control (100%)
T2 construct: purchased Biomol SE-244
Method: as §2

[4] = Antioxidant activity, pholasin ABEL chemiluminescence test, superoxides; assay type: biochemical
Method: as §1, with “respectively. […] The antioxidant capacity of the ingredient is expressed as the percentage reduction of the luminescence peak of Pholasin observed during the assay in the presence and in the absence of the active ingredient ±SD, with the untreated control represented at 0%.” for “respectively.”

[5] = system: Primary human keratinocytes (KC); experiment: Primary human keratinocytes (KC) under Paraquat stress: cell counts and qPCR of MMP1, p16INK4a; assay type: cell-based; settings: for Mean number of cells counted, corrected for the cell division factor: 37500 cells seeded on day 0
Method: Primary human keratinocytes derived from neonatal foreskin of individual donors (KC) were purchased from CellSystems (Troisdorf, Germany) and cultured in a KC growth medium (KGM, Clonetics, Gaithersburg, USA) supplemented with 0.1 ng/ml of recombinant human EGF, 5 μg/ml insulin, 0.5 μg/ml of hydrocortisone, 0.4% of bovine pituitary extract, 50 μg/ml of gentamicin and 50 ng/ml of amphotericin B. The RNA was isolated using the RNeasy 96 system ([…]), and 900 ng of total RNA was reverse-transcribed with the iScript cDNA Synthesis Kit (Biorad). qPCR was performed using the LightCycler 480 and the LightCycler 480 SYBR Green I Master (Roche, Basle, Switzerland). Expression of the target genes was normalized relative to expression of β-2 microglobulin. The sequences of the primers are as follows (5′-3′): B2Mf […] (SEQ ID NO:11); B2Mr: […] (SEQ ID NO:12);
The cells are seeded for the stress experiments on day 0 at 1500 cells/cm^2 and treated on days 2, 5 and 6 with Paraquat (PQ) (80 μm) for 24 hours. Treatment with Goldenrod was carried out on days 1 and 4 on untreated cells or cells treated with Paraquat.

T1 sequence (P08254 100-272 limits assumed): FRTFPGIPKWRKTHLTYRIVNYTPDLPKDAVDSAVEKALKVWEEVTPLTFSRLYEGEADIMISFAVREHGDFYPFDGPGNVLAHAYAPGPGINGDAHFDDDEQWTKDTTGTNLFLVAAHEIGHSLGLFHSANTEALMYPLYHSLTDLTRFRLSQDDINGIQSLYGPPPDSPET
T2 sequence (P14780 107-444 limits assumed): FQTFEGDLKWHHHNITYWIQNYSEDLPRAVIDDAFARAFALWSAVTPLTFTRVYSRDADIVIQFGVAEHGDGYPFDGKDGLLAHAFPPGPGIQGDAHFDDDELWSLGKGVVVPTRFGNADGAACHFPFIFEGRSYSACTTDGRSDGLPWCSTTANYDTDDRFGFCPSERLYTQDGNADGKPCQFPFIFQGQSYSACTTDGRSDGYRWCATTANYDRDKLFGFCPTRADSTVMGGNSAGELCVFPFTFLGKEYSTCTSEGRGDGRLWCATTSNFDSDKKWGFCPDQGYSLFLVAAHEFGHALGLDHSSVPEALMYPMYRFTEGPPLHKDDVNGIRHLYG

OC[C@@H](O)[C@@H](O)[C@H](O)[C@H](O)CO [D-Mannitol]
Mean % inhibition ([1]; 0.8 mM): 59.9 ± 3.6%
Mean % inhibition ([1]; 1 mM): 76.1 ± 14%
Mean % inhibition ([1]; 2 mM): 82.6 ± 14.8%
Mean % inhibition ([1]; 4 mM): 92.6 ± 4.7%
Mean % inhibition ([1]; 6 mM): 95.1 ± 0.3%

O=C(O)CN(CCN(CC(=O)O)CC(=O)O)CC(=O)O [EDTA]
Enzyme activity MMP3 [2]: 4.3 ± 5.3%
Enzyme activity MMP9 [3]: 0 ± 0.9%

O=C1O[C@H]([C@@H](O)CO)C(O)=C1O [L-ascorbic acid]
Mean % inhibition ([4]; 10 μmol/L): 26.4 ± 3.5%
Mean % inhibition ([4]; 20 μmol/L): 43.9 ± 1.4%
Mean % inhibition ([4]; 40 μmol/L): 64.8 ± 0.8%
Mean % inhibition ([4]; 60 μmol/L): 75.3 ± 1%
Mean % inhibition ([4]; 80 μmol/L): 82.4 ± 1.8%

C[n+]1ccc(-c2cc[n+](C)cc2)cc1 [Paraquat]
Mean number of cells counted, corrected for the cell division factor ([5]; D3, single treatment): 405,000 cells
Mean number of cells counted, corrected for the cell division factor ([5]; D7, single treatment): 546,666 cells
Expression of MMP1 ([5]; treatment with Paraquat alone): induces
Expression of p16INK4a ([5]; treatment with Paraquat alone): induces
